From US20120149647A1, “Methods for Assessing the Efficacy of Gemcitabine or Ara-C Treatment of Cancer Using Human Antigen R Levels” (priority 2009, published 2012)
“Also recorded” adds a separate entry of the source.

How the values were obtained:
[1] = test system: HuR association with dCK mRNA in MiaPaCa2 cells; assay: RNP IP assay of HuR association with dCK mRNA; dCK protein and mRNA levels; type: cell-based; conditions: GEM treatment
Protocol: MiaPaCa2 cells were treated with 4 μM GEM and collected 48 hours later. For biotin pulldown analysis (Kuwano Y, et al. Mol Cell Biol 2008; […]), cytoplasmic extracts were isolated using, the NE-PER® Nuclear and Cytoplasmic Extraction Reagents Kit (Pierce Biotechnology) Probes for biotin pull-down analysis were synthesized as described (Kuwano Y, et al. Mol Cell Biol 2008; […] using the following PCR primers (sense and antisense, respectively) containing the T7 RNA polymerase promoter sequence […] (T7) (SEQ ID NO: 1): (T7)[…] (SEQ ID NO: 2) and […] (SEQ ID NO: 3) for dCK 3′UTR; (T7)[…] (SEQ ID NO: 4) and […] (SEQ ID NO: 5) for GAPD 3′UTR (Casolaro V, et al. J Allergy Clin Immunol 2008; 121:853-9 e4) (see supplemental figure for depiction of UTR positions). Biotinylated probes were synthesized using the MAXIscript T7 kit (Ambion) and Biotinylated dCTP (Enzo Life Sciences). For immunoprecipitation of endogenous RNA-protein complexes (RNP IP) from cytoplasmic (450 μg) extracts, reactions were carried out as described (Kuwano Y, et al. Mol Cell Biol 2008; 28:4562-75), using protein A Sepharose beads (Sigma) that were precoated with 30 μg of either mouse immunoglobulin G1 (IgG1; BD Biosciences), or anti-HuR antibodies. […] GAPDH and dCK transcripts were quantified by real-time PCR analysis using each specific primers: […] […]

[2] = test system: pancreatic cancer cell lines MiaPaca2, PL-5, and Hs766t; assay: Drug sensitivity assay (PicoGreen cell survival), HuR-overexpressing vs control lines; type: cell-based; conditions: PicoGreen cell survival after 5-7 days of drug, HuR vs empty vector/control cells
Text: HuR cDNA sequence was cloned into the pcDNA 3.1. Zeo vector (Invitrogen) for stable transfection of pancreatic cancer cell lines MiaPaca2, PL-5, and Hs766t. Pooled cells remained under selection media containing Zeocin (Invitrogen) for several months after transfection. Mia.HuR, PL5.HuR, and Hs766t. HuR denote link overexpressing lines; Mia.EV, PL5.EV, and Hs766t denote empty vector or control lines. HuR and control siRNA sequences and transfection conditions were as described.
Mia.HuR, Mia.EV, Hs766t.HUR, Hs766t, and PL5.HuR, PL5.EV cells were seeded (1000 cells/well) in 96-well plates and treated with Etoposide, 5-Fluorouracil, Cis-platin, Staurosporine, Nocodazole, Colcemid, Ara-C (Sigma), and GEM (Gemzar, Eli-Lilly, Indianapolis, Ind.) for 6-7 days. After treatment, cells were washed with PBS and lysed with 100 μL of water/well; cell viability was quantified by staining of double-stranded DNA with QuantiT™ PicoGreen (Invitrogen) and analyzed with a TECAN SpectraFluor.

[3] = test system: HuR in MiaPaCa2 cells; assay: HuR levels and localization by immunoblot and immunofluorescence; type: cell-based; conditions: parental MiaPaCa2 cells, GEM treatment
Protocol: Cells were plated on LabTek II™ Chamber slides (Fisher Scientific) and fixed in 3% paraformaldehyde (20 min, RT). Cells were washed with PBS and permeabilized using 0.5% Triton X-100/1% normal goat serum (Vector Laboratories) in PBS (15 min). After washes in 1% goat serum/PBS, cells were incubated (1:50 dilution, 1 hr, RT) with mouse anti-HuR (Santa Cruz) or anti-deoxycytidine kinase (dCK, Abnova) primary antibodies. After washes in PBS, cells were incubated for 1 hr with goat anti-mouse secondary antibody (1:400, Alexa Fluor 647, Molecular Probes). Nuclei were stained with DAPI and cells were evaluated under a Zeiss LSM-510 Confocal Laser Microscope.
Whole-cell, cytoplasmic, and nuclear lysates were prepared as described (Kuwano Y, et al. Mol Cell Biol 2008; 28:4562-75), and protein was size-fractionated by SDS-PAGE (10% acrylamide). Membranes were blocked for 1 h in 5% Milk/TBS-T and incubated overnight with monoclonal antibodies (Santa Cruz) recognizing HuR, dCK, the cytoplasmic marker α-Tubulin, or the nuclear marker hnRNP. Membranes were washed with TBS-T and incubated with secondary antibodies; and the resulting signals were visualized by chemiluminescence (Millipore). Total protein was visualized with Fast Green (USB).

[4] = test system: Mia.EV and Mia.HuR cell lines; assay: Cell cycle analysis and apoptosis assay (flow cytometry); type: cell-based; conditions: 0.03 μM GEM, 48 h
Protocol: Mia.EV and Mia.HuR cell lines were either left untreated or treated with 0.03 μM GEM for 48 h. For cell cycle analysis, cells were then fixed in 100% ethanol, and stained with a propidium iodide solution containing RNAse A (Sigma Aldrich). For apoptosis assays, cells were resuspended at 10^6 cells/mL and incubated in Annexin V and Propidium Iodide, following the manufacturers' protocol (FITC Annexin V, BD Pharmigen). Both assays were analyzed by flow cytometry.

[5] = test system: pancreatic ductal adenocarcinoma; assay: Overall survival of resected PDA patients receiving GEM, stratified by cytoplasmic HuR; type: in vivo; conditions: for adjusted hazard ratio of low to high HuR: adjusted for age, sex, Xeloda use and radiation therapy
Protocol: HuR immunostaining was performed on 32 resected PDA specimens from the Thomas Jefferson University pathology archives after IRB approval. All patients received GEM, alone or in combination with XELODA® (Capecitabine) (2 patients), radiation therapy (8 patients) or both (2 patients). The experienced pancreatic pathologist (A.K.W.) reviewed all cases in a blinded fashion and classified the tumors as well differentiated (n=6), moderately differentiated (n=22), or poorly differentiated […]. For each case, representative sections were selected for immunohistochemical analysis of HuR cytoplasmic and nuclear staining patterns, which were scored using the following scale: 0 for no staining, 1 for weak and/or focal (<10% of the cells) staining; 2 for moderate or strong, staining (10-50% of the cells); and 3 for moderate or strong staining (>50% of the cells). Combined scores 0 and 1 represented low expression, while combined scores 2 and 3 represented high expression.

[6] = patients receiving GEM, listed as gemcitabine

SMILES | overall dCK protein or mRNA levels [1] | HuR's association with dCK mRNA ([1]; RNP IP) | sensitivity of HuR-overexpressing cell lines compared with control lines [2] | sensitivity of HuR-overexpressing cell lines compared with control lines ([2]; listed as gemcitabine) | cytoplasmic HuR levels [3] | whole-cell HuR levels [3] | apoptosis of HuR overexpressing cells compared to control cells [4] | cell cycle distribution of HuR overexpressing cells compared to control cells [4] | hazard ratio of low to high HuR, univariate Cox regression ([5]; patients receiving GEM) | adjusted hazard ratio of low to high HuR ([5]; patients receiving GEM) | adjusted hazard ratio of low to high HuR [5, 6] | hazard ratio of low to high HuR, univariate Cox regression [5, 6] | increase in risk of death, low vs high HuR levels [5, 6] [fold] | median overall survival time for patients on GEM ([5]; resected PDA patients, GEM alone or combined) [days]
Nc1ccn(C2OC(CO)C(O)C2(F)F)c(=O)n1 (stereo not drawn) [GEM, 4-amino-1-[3,3-difluoro-4-hydroxy-5-(hydroxymethyl)tetrahydrofuran-2-yl]-1H-pyrimidin-2-one] | did not alter | significantly increased | more sensitive | strikingly hypersensitive | significantly increased | did not alter | increased apoptosis | selective enrichment in the S-phase | 4.48 | 7.34 | 5.04 | 3.36 | 5 | 619
Nc1ccn([C@@H]2O[C@H](CO)[C@@H](O)[C@@H]2O)c(=O)n1 [Ara-C, Cytarabine] |  |  | selectively more sensitive; also recorded: hypersensitive |  |  |  |  |  |  |  |  |  |  | 
